# Reference: ChEMBL document CHEMBL3885861, “Open TG-GATES”
# Species: Rattus norvegicus
# Assay: Open TG-GATES - Regimen: Single
# Format: toxicity, organism-based, Sprague-Dawley
# Set-up: regimen Single, gender Male, age 6 weeks
# Details: in vivo, po, 10 mg/kg, route gavage, dose level Low; for APTT / Bas / Eos / Fbg / Hb / Ht / Lym / MCH / MCHC / MCV / Mono / Neu / PT / Plat / RBC / Ret / WBC: tissue Blood; for KIDNEY_L / KIDNEY_R / KIDNEY_TOTAL: tissue Kidney; for LIVER: tissue Liver
structure (smiles),measurement,setting,value
COc1cc([C@@H]2c3cc4c(cc3[C@@H](O[C@@H]3O[C@@H]5CO[C@@H](C)O[C@H]5[C@H](O)[C@H]3O)[C@H]3COC(=O)[C@H]23)OCO4)cc(OC)c1O [ETOPOSIDE],TERMINAL_BW,3 h,200.9 g
same,APTT,3 h,16.9 s
same,Bas,3 h,0%
same,Eos,3 h,1.2%
same,Fbg,3 h,201 mg/dL
same,Hb,3 h,13.4 g/dL
same,Ht,3 h,39.9%
same,Lym,3 h,76.4%
same,MCH,3 h,22.1 pg
same,MCHC,3 h,33.7%
same,MCV,3 h,65.7 fL
same,Mono,3 h,8%
same,Neu,3 h,14.8%
same,PT,3 h,12.3 s
same,Plat,3 h,115.3 x10_4/uL
same,RBC,3 h,606.6 x10_4/ul
same,Ret,3 h,10.2%
same,WBC,3 h,99.6 x10_2/uL
same,KIDNEY_L,3 h,0.9 g
same,KIDNEY_R,3 h,0.9 g
same,KIDNEY_TOTAL,3 h,1.9 g
same,LIVER,3 h,9.4 g
same,ALP,"3 h, tissue Plasma",896.4 IU/L
same,ALT,"3 h, tissue Plasma",34.2 IU/L
same,AST,"3 h, tissue Plasma",67.2 IU/L
same,BUN,"3 h, tissue Plasma",13 mg/dL
same,CRE,"3 h, tissue Plasma",0.5 mg/dL
same,Ca,"3 h, tissue Plasma",10.7 mg/dL
same,Cl,"3 h, tissue Plasma",104.6 meq/L
same,DBIL,"3 h, tissue Plasma",0.012 mg/dL
same,GLC,"3 h, tissue Plasma",192.8 mg/dL
same,IP,"3 h, tissue Plasma",9 mg/dL
same,K,"3 h, tissue Plasma",4.5 meq/L
same,LDH,"3 h, tissue Plasma",114.2 IU/L
same,Na,"3 h, tissue Plasma",141.8 meq/L
same,PL,"3 h, tissue Plasma",134 mg/dL
same,RALB,"3 h, tissue Plasma",3.5 g/dL
same,TBIL,"3 h, tissue Plasma",0.3 mg/dL
same,TC,"3 h, tissue Plasma",75.8 mg/dL
same,TG,"3 h, tissue Plasma",46.4 mg/dL
same,TP,"3 h, tissue Plasma",5.4 g/dL
same,gamma-GTP,"3 h, tissue Plasma",2 IU/L
same,TERMINAL_BW,6 h,198.3 g
same,APTT,6 h,16.9 s
same,Bas,6 h,0%
same,Eos,6 h,1%
same,Fbg,6 h,194.4 mg/dL
same,Hb,6 h,13.6 g/dL
same,Ht,6 h,40.8%
same,Lym,6 h,79.8%
same,MCH,6 h,21.6 pg
same,MCHC,6 h,33.3%
same,MCV,6 h,64.9 fL
same,Mono,6 h,6.4%
same,Neu,6 h,13.2%
same,PT,6 h,11.8 s
same,Plat,6 h,110.4 x10_4/uL
same,RBC,6 h,629.6 x10_4/ul
same,Ret,6 h,9.8%
same,WBC,6 h,78.9 x10_2/uL
same,KIDNEY_L,6 h,1 g
same,KIDNEY_R,6 h,1 g
same,KIDNEY_TOTAL,6 h,2 g
same,LIVER,6 h,8.6 g
same,ALP,"6 h, tissue Plasma",862.6 IU/L
same,ALT,"6 h, tissue Plasma",35 IU/L
same,AST,"6 h, tissue Plasma",66.8 IU/L
same,BUN,"6 h, tissue Plasma",10.8 mg/dL
same,CRE,"6 h, tissue Plasma",0.6 mg/dL
same,Ca,"6 h, tissue Plasma",10.5 mg/dL
same,Cl,"6 h, tissue Plasma",104.4 meq/L
same,DBIL,"6 h, tissue Plasma",0.02 mg/dL
same,GLC,"6 h, tissue Plasma",195.4 mg/dL
same,IP,"6 h, tissue Plasma",10.2 mg/dL
same,K,"6 h, tissue Plasma",4.6 meq/L
same,LDH,"6 h, tissue Plasma",99.4 IU/L
same,Na,"6 h, tissue Plasma",142 meq/L
same,PL,"6 h, tissue Plasma",128 mg/dL
same,RALB,"6 h, tissue Plasma",3.3 g/dL
same,TBIL,"6 h, tissue Plasma",0.4 mg/dL
same,TC,"6 h, tissue Plasma",72.2 mg/dL
same,TG,"6 h, tissue Plasma",42.6 mg/dL
same,TP,"6 h, tissue Plasma",5.2 g/dL
